Results from patent publication US20260294874A1, “COMPOSITIONS COMPRISING MODULATORS OF RIBONUCLEOPROTEIN GRANULE FORMATION AND DISSOLUTION AND METHODS OF USE THEREOF” (University of Virginia Patent Foundation, priority 2023, published 2026).
Entries after “also recorded” stand apart in the source; their conditions may differ.

How the values were obtained:
[1] = tested on: stress granules (G3BP1 foci) in HeLa cells; test: Immunofluorescence phenotypic screen for stress granules (α-G3BP1) in stressed HeLa cells; assay type: cell-based; settings: 2 h; for effect on SGs (in words): 25 μM; for inhibition at 25 µM: read-out: reduction/inhibition of SGs/cell
Protocol: SuTEx compound treatments. Prior to treatments, cells were washed twice with warm phosphate-buffered saline (PBS) and exchanged with serum-free DMEM (supplemented with 1% L-glutamine) for at least 30 minutes at 37° C. with 5% CO2. Compounds were then added as 1000×DMSO stocks (10 μL for 10 cm dishes and 3 μL for 6-well dishes), plates were mixed gently, and cells were incubated for two hours. All compounds were thoroughly vortexed and sonicated for five minutes prior to addition to ensure complete solvation. For microscopy experiments, cultures were seeded at 150,000 cells in 3 mL of DMEM in 6-well THERMO SCIENTIFIC™ BIOLITE™ brand microwell plates (Catalog No. 12556004; Thermo Fisher Scientific Inc., Waltham, Massachusetts. United States of America). For collection, media was aspirated, and cells were washed once with cold PBS before scraping from plates. Cells were centrifuged at 500×g at 4° C. for 5 minutes and supernatant was removed. Cell pellets were resuspended in cold PBS (1 mL) and centrifuged at 1,400×g at 4° C. for 3 minutes. Supernatant was again removed, and pellets were then snap-frozen in liquid nitrogen and stored at −80° C. until needed.
Immunofluorescence. Immunofluorescence (IF) of HEK293T cells was performed as previously described in Ciancone et al., 2022. HeLa cells were seeded at 9.0×10^4 in a 24-well plate with 12-mm glass coverslips. The next day, the cells were treated with 25 μM SuTEx probe for 2 hours in DMEM medium without FBS. The cells were then treated with 75 μM NaAsO2 for 30 minutes and fixed with 3% paraformaldehyde in PBS for 15 minutes at room temperature (RT) and washed with PBS twice. The fixed cells were permeabilized with PBST (0.1% Triton X-100) for 15 minutes at room temperature and blocked with 5% goat serum in PBST for 30 minutes at RT. The cells were incubated with anti-G3BP1 antibody H-10 (Catalog No. sc-365338 at 1:200 dilution; Santa Cruz Biotechnology, Inc., Dallas, Texas, United States of America) for 2 hours at RT and washed with PBST (0.1% Tween-20) for 5 minutes three times. Next, cells were incubated with goat anti-mouse Alexa 594 antibody (Catalog No. 115-585-003 at 1:800 dilution; Jackson ImmunoResearch, West Grove, Pennsylvania, United States of America) for 30 minutes at RT. The cells were washed twice with PBST, stained with Hoechst 33342 (Catalog No. H3570 at […]; Thermo Fischer Scientific) in PBST for 5 minutes, and washed with PBS twice for 5 minutes. The coverslips were mounted in PROLONG™ Gold AntiFade Mountant (Catalog No. P36930, Thermo Fisher Scientific) and imaged using NIS Elements AR software and a Nikon Eclipse Ti microscope equipped with a ×100 objective and CMOS camera. […] A CellProfiler pipeline was developed to quantify the number of stress granules under each condition. Briefly, cells were recognized as blue^+ (nuclei) red^+ (G3BP1) objects, and the red^+ granules that meet the shape and size threshold were identified and counted. Cells on the border of linages were excluded from the analysis for more accurate quantification.
We used immunofluorescence (IF) detection for phenotypic screening of SuTEx compound activity on stress-induced PB and SG levels in cells (FIG. 1B). PBs were induced through glucose deprivation of HEK293T cells and detected by immunofluorescence with anti-enhancer of mRNA-decapping protein 4 (EDC4) as previously described (Kedersha & Anderson, 2007; Ciancone et al., 2022) (~4 vs 2 PBs/cell in −glucose and +glucose conditions, respectively; FIG. 8). EDC4 is an established PB marker for mammalian cells and is important for PB formation (Kedersha & Anderson, 2007; Luo et al., 2018). SGs were induced in HeLa cells by [COMPOUND LEFT OUT] treatments and detected by fluorescent staining with anti-Ras GTPase-activating protein-binding protein 1 (G3BP1) antibody (75 μM [COMPOUND LEFT OUT], 30 min; FIG. 9). G3BP1 foci have been used in previous IF studies to identify SGs in cells (Kedersha & Anderson, 2007). […]

G3BP1 Y40 = biological target: T1, G3BP1 Y40 (Homo sapiens, UniProt Q13283); test: Competitive ABPP SILAC LC-MS/MS chemical proteomics, G3BP1 Y40; assay type: cell-based; settings: stressed HeLa cells, 25 μM, 2 h
T1 construct: liganded site Y40 in NTF2 domain
Protocol: Preparation of SILAC proteomes for LC-MS/MS analysis. SILAC cell proteomes were fractionated to collect the supernatant and normalized to 2.3 mg/mL in PBS. ‘Heavy’ and ‘light’ proteomes were aliquoted (427 μL) and probe-modified proteins were conjugated to desthiobiotin-PEG-3-azide using copper-catalyze azide-alkyne cycloaddition, trypsinized into peptides using Trypsin/Lys-C Mix (Catalog No. V5071; Promega Corporation, Madison, Wisconsin, United States of America), enriched using PIERCE™ Avidin Agarose brand beads (Catalog No. 20219; Thermo Fisher Scientific Inc., Waltham, Massachusetts. United States of America), and prepared for nano-electrospray ionization-LC-MS/MS analysis as previously described in Hahm et al., 2020.
Data Analysis—Chemical Proteomics. Identification and analysis of peptides and proteins using LC-MS was accomplished using bioinformatics software and quality control parameter protocols as previously described in Hahm et al., 2020.
We performed quantitative liquid-chromatography tandem mass spectrometry (LC-MS/MS) chemical proteomic studies to identify the target protein and binding site(s) of SuTEx fragments with RNP granule modulating activity. […] SILAC light and heavy cells (HEK293T and HeLa) were treated with experimental conditions used for phenotypic screening including the SuTEx ligand pretreatment (25 μM, 2 h) followed by PB (glucose-deprivation, 15 min) and SG induction (75 μM [COMPOUND LEFT OUT], 30 min). Afterwards, cells were lysed, soluble proteomes treated with HHS-465 SuTEx probe (100 μM, 1 h), a global Tyr/Lys-reactive probe used previously for RNP granule investigations (Ciancone et al., 2022), and samples processed to probe-modified peptides for LC-MS/MS analysis as previously reported (Huang et al., 2021), shown in FIG. 10.
We detected ~8,700 probe-modified sites (Tyr and Lys) in our aggregate HeLa and HEK293T chemical proteomic analyses. […]

T1 sequence (Q13283 whole entry, the tested form may be a part): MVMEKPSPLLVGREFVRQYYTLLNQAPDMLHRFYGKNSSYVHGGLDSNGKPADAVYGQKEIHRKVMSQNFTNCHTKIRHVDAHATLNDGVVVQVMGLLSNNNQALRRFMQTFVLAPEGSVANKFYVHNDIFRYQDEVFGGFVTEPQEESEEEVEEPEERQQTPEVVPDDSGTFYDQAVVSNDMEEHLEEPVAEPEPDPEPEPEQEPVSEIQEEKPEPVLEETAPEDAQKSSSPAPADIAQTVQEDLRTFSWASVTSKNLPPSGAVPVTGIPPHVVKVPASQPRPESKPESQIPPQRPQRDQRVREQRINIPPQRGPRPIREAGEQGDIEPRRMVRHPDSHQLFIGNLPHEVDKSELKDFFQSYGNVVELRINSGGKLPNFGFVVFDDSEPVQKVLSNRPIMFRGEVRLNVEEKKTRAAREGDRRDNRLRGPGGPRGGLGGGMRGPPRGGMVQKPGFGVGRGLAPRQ

Row | Structure (SMILES) | effect on SGs (in words) [1] | fold induction at 25 µM ([1]; Homo sapiens, read-out: increase in SGs per cell) | liganding of G3BP1 Y40 (in words) (G3BP1 Y40) | inhibition at 25 µM ([1]; Homo sapiens) | SILAC ratio (SR), G3BP1 Y40 (G3BP1 Y40; HHS-465 100 μM, DMSO (light)/ligand (heavy))
1 | COc1ccc(S(=O)(=O)n2cc(CS(C)(=O)=O)nn2)cc1 [AHL-030, 1-((4-Methoxyphenyl)sulfonyl)-4-((methylsulfonyl)methyl)-1H-1,2,3-triazole] | SG enhancer; also recorded: SG-enhancing; also recorded: enhance SGs; also recorded: increased SGs | ~2 |  |  | 
2 | N#Cc1ccc(S(=O)(=O)n2cc(-c3cccc(Cl)c3)nn2)cc1 [EKT231, 4-((4-(3-Chlorophenyl)-1H-1,2,3-triazol-1-yl)sulfonyl)benzonitrile] |  |  | lack of binding activity |  | 
3 | CC(C)c1cc(C(C)C)c(S(=O)(=O)n2cc(-c3ccc(C(F)(F)F)cc3)nn2)c(C(C)C)c1 [AHL-003] | block both types of RNP granules; also recorded: inhibited |  |  | > 70% | 
4 | COc1ccc(S(=O)(=O)n2cc(C3CCCCC3)nn2)cc1 [HHS-166, 4-Cyclohexyl-1-((4-methoxyphenyl)sulfonyl)-111-1,2,3-triazole] | moderate, but statistically significant inhibitory activity; also recorded: enriched activity; also recorded: inhibits SG assembly; also recorded: inhibited SGs |  | liganded G3BP1 Y40; also recorded: liganded site (Y40) | ~50% | > 2
